Reference: US20260042762A1 (Kymera Therapeutics, Inc., priority 2018, published 2026)

These compounds were tested against T1, MerTK (Homo sapiens, UniProt Q12866) (assay: MerTk degradation in Jurkat cells (Western blot)). Details: Jurkat, 4 h, 0.001-1 μM, 4 hour-incubation at 37° C., read-out: Jurkat Max % MerTK Degradation.
T1 construct: endogenous in cells; host or cells: Jurkat cells
T1 sequence (Q12866 21-999): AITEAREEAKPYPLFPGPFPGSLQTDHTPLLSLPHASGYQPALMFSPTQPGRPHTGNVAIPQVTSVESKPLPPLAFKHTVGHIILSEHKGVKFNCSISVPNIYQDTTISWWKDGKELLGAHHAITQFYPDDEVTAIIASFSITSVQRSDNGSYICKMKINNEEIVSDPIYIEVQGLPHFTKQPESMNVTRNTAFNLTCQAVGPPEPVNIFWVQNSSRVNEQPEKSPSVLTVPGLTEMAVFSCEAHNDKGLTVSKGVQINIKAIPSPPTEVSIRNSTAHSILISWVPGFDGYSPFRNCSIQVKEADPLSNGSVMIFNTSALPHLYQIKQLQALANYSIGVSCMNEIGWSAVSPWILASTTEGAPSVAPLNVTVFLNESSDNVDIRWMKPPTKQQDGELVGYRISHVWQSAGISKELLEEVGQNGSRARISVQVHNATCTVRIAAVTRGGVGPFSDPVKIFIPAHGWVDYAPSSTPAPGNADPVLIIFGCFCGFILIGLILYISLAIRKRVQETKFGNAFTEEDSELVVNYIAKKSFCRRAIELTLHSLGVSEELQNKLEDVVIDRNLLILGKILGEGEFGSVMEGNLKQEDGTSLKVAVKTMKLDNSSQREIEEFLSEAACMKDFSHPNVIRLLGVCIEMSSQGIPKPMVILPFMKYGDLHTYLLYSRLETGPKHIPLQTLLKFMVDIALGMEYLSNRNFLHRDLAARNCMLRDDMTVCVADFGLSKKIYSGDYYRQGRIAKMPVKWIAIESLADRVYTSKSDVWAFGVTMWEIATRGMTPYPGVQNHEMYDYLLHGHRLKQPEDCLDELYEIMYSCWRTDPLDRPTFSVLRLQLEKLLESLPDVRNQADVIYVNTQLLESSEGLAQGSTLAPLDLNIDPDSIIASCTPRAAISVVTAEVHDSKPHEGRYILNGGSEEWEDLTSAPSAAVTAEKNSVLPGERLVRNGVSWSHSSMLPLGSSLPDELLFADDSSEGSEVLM
Format: cell-based
Method in brief: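 MerTK degradation was read by near-infrared Western blot, normalized to actin, in BCA-quantified lysates of Jurkat cells exposed to 0.001-1 μM compound for 4 h at 37 °C.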

Row | Dmax | SMILES
1 | < 20% | C[C@@H](CC(F)(F)F)Nc1ncc2c(-c3ccc(CN4CCN(CCCOCCCc5ccc6c(c5)n(C)c(=O)n6C5CCC(=O)N(C)C5=O)CC4)cc3)cn([C@H]3CC[C@H](O)CC3)c2n1 (stereo partly drawn) [I-225, 1-methyl-3-[3-methyl-2-oxo-5-[3-(3-[4-[(4-[7-[trans-4-hydroxycyclohexy1]-2-[[(2S)-4,4,4-trifluorobutan-2-yl]amino]pyrrolo[2,3-d]pyrimidin-5-yl]phenyl)methyl]piperazin-1-yl]propoxy)propyl]-1,3-benzodiazol-1-yl]piperidine-2,6-dione]
2 | > 50% | N[C@H]1CCCC[C@H]1Nc1cc2nc[nH]c(=O)c2c(Nc2cccc3c2ccn3CCOCCOCCOCCOCCNc2cccc3c2C(=O)N(C2CCC(=O)NC2=O)C3=O)n1 (stereo partly shown) [I-227]
3 | 20 to 50% | COc1ccc(Nc2nc(Nc3cc(OCCOCCOCCOCCOCC(=O)N[C@H](C(=O)N4C[C@H](O)C[C@H]4C(=O)NCc4ccc(-c5scnc5C)cc4)C(C)(C)C)c(OC)cc3C)ncc2Cl)c(NS(C)(=O)=O)c1 [I-228]
4 | < 20% | Cc1ncsc1-c1ccc(CNC(=O)[C@@H]2C[C@@H](O)CN2C(=O)[C@@H](NC(=O)COCCOCCOCCOCCn2ccc3c(Nc4nc(N[C@@H]5CCCC[C@@H]5N)nnc4C(N)=O)cccc32)C(C)(C)C)cc1 [I-229]
5 | < 20% | Cc1ncsc1-c1ccc(CNC(=O)[C@@H]2C[C@@H](O)CN2C(=O)[C@@H](NC(=O)COCCOCCOCCOCCn2ccc3c(Nc4nc(N[C@@H]5CCCC[C@@H]5N)cc5nc[nH]c(=O)c45)cccc32)C(C)(C)C)cc1 [I-230]
6 | < 20% | COc1ccc(Nc2nc(Nc3cc(OCCOCCOCCOCCOCCNc4cccc5c4C(=O)N(C4CCC(=O)NC4=O)C5=O)c(OC)cc3C)ncc2Cl)c(NS(C)(=O)=O)c1 (stereo not shown) [I-231]
7 | < 20% | COc1cc(Nc2nc(N[C@H]3CCCC[C@H]3N)n3ccnc3c2C(N)=O)cc(OCCOCCOCCOCCNc2cccc3c2C(=O)N(C2CCC(=O)NC2=O)C3=O)c1 (stereo partly shown) [I-232]
8 | > 50% | CCC1CN(c2ccc(-c3ccnc(Nc4cc(OC)c(OC)c(OCCOCCOCCOCCOCC(=O)N[C@H](C(=O)N5C[C@H](O)C[C@H]5C(=O)NCc5ccc(-c6scnc6C)cc5)C(C)(C)C)c4)n3)cn2)CCN1 (stereo partly shown) [I-233]
9 | < 20% | CCC1CN(c2ccc(-c3ccnc(Nc4cc(OC)c(OC)c(OCCOCCOCCOCCOCCNc5cccc6c5C(=O)N(C5CCC(=O)NC5=O)C6=O)c4)n3)cn2)CCN1 (stereo not shown) [I-234]

Second part, the compound before the results:

Row | SMILES | Dmax
10 | CCC[C@@H](C)Nc1ncc2c(n1)n([C@H]1CC[C@H](O)CC1)cc2[C@H]1CC[C@@H](CN2CCN(CCCO[C@H]3CCN(Cc4ccc5c(c4)n(C)c(=O)n5C4CCC(=O)NC4=O)C3)CC2)CC1 (stereo partly drawn) [I-219, 3-(3-methyl-2-oxo-5-[[(3S)-3-[3-(4-[[trans-4-[2-[(2S)-pentan-2-ylamino]-7-[trans-4-hydroxycyclohexyl]pyrrolo[2,3-d]pyrimidin-5-yl]cyclohexyl]methyl]piperazin-1-y1)propoxy]pyrrolidin-1-yl]methyl]-1,3-benzodiazol-1-yl)piperidine-2,6-dione; tris(formic acid)] | > 50%
11 | CCC[C@H](C)Nc1ncc2c(n1)n([C@H]1CC[C@H](O)CC1)cc2[C@H]1CC[C@@H](CN2CCN(CCCO[C@H]3CCN(Cc4ccc5c(c4)n(C)c(=O)n5C4CCC(=O)NC4=O)C3)CC2)CC1 (stereo partly drawn) [I-220, 3-(3-methyl-2-oxo-5-[[(3S)-3-[3-(4-[[4-[2-[(2S)-pentan-2-ylamino]-7-[trans-4-hydroxycyclohexyl]pyrrolo[2,3-d]pyrimidin-5-yl]cyclohexyl]methyl]piperazin-1-y1)propoxy]pyrrolidin-1-yl]methyl]-1,3-benzodiazol-1-y1)piperidine-2,6-dione] | > 50%
12 | CCC[C@@H](C)Nc1ncc2c(n1)n([C@H]1CC[C@H](O)CC1)cc2[C@H]1CC[C@H](CN2CCN(CCCO[C@H]3CCN(Cc4ccc5c(c4)n(C)c(=O)n5C4CCC(=O)NC4=O)C3)CC2)CC1 (stereo partly drawn) [I-221, trans-3-(3-methyl-2-oxo-5-[[(3R)-3-[3-(4-[[(1r,4r)-4-[2-[(2S)-pentan-2-ylamino]-7-[4-hydroxycyclohexyl]pyrrolo[2,3-d]pyrimidin-5-yl]cyclohexyl]methyl]piperazin-1-y1)propoxy]pyrrolidin-1-yl]methyl]-1,3-benzodiazol-1-yl)piperidine-2,6-dione] | 20 to 50%
13 | CCC[C@H](C)Nc1ncc2c(n1)n([C@H]1CC[C@H](O)CC1)cc2[C@H]1CC[C@@H](CN2CCN(CCCOC3CN(Cc4ccc5c(c4)n(C)c(=O)n5C4CCC(=O)NC4=O)C3)CC2)CC1 (stereo partly shown) [I-222] | > 50%
14 | CCC[C@H](C)Nc1ncc2c(n1)n([C@H]1CC[C@H](O)CC1)cc2[C@H]1CC[C@H](CN2CCN(CCCOC3CN(Cc4ccc5c(c4)n(C)c(=O)n5C4CCC(=O)NC4=O)C3)CC2)CC1 (stereo partly drawn) [I-223, 3-[3-methyl-2-oxo-5-([3-[3-(4-[[trans-4-[2-[(2S)-pentan-2-ylamino]-7-[trans-4-hydroxycyclohexyl]pyrrolo[2,3-d]pyrimidin-5-yl]cyclohexyl]methyl]piperazin-1-y1)propoxy]azetidin-1-yl]methyl)-1,3-benzodiazol-1-yl]piperidine-2,6-dione] | 20 to 50%
15 | C[C@H](CC(F)(F)F)Nc1ncc2c(-c3ccc(CN4CCN(CCCOCCCc5ccc6c(c5)n(C)c(=O)n6C5CCC(=O)N(C)C5=O)CC4)cc3)cn([C@H]3CC[C@H](O)CC3)c2n1 (stereo partly drawn) [I-224, 1-methyl-3-[3-methyl-2-oxo-5-[3-(3-[4-[(4-[7-[trans-4-hydroxycyclohexy1]-2-[[(2R)-4,4,4-trifluorobutan-2-yl]amino]pyrrolo[2,3-d]pyrimidin-5-yl]phenyl)methyl]piperazin-1-yl]propoxy)propyl]-1,3-benzodiazol-1-yl]piperidine-2,6-dione] | < 20%
16 | CC(O)c1ccc2c(c1)n(C)c(=O)n2C1CCC(=O)NC1=O (stereo not shown) [I-236] | > 50%
